# Assay results as given in patent US20060281755A1, “SYNERGISTIC MODULATION OF FLT3 KINASE USING AMINOPYRIMIDINES KINASE MODULATORS” (priority 2005, published 2006).
# Read-outs that look alike come from different tables or passages of the source.
# Experiments:
# MV4-11 AML cells = experiment: 72-hour cell proliferation assay and combination index analysis, MV4-11; format: cell-based, human; conditions: with single sub-IC50 dose of FLT3 inhibitor Compound A (50 nM)
# Baf3-FLT3 cells = experiment: 72-hour cell proliferation assay and combination index analysis, Baf3-FLT3; format: cell-based, murine; conditions: with single sub-IC50 dose of FLT3 inhibitor Compound A (100 nM)
# Procedure: (§1) Dose responses for the individual compounds alone were determined for each cell line using a standard 72-hour cell proliferation assay (see FIGS. 6.1-6.8). […] Each of these chemically distinct compounds alone has potential for the treatment of disorders related to FLT3, such as FLT3 positive AML. […] The FLT3 inhibitors tested had no effect on THP-1 proliferation. […] (See FIGS. 10.1-10.8 and Tables 1-3, hereafter.)
# (§2) To statistically evaluate the synergy of a FLT3 inhibitor and an FTI in FLT3 dependent cell lines, dosing combinations were evaluated by the method of Chou and Talalay. See Chou T C, Talalay P. (1984) “Quantitative analysis of dose-effect relationships: the combined effects of multiple drugs or enzyme inhibitors.” Adv Enzyme Regul. 22:27-55. Using this method inhibitors are added simultaneously to cells in a ratio of the IC50 dose of each compound alone. […] Using this method, multiple FTI and FLT3 combinations were evaluated. […]
# (§3) Combination Index Analysis. To determine growth inhibition synergy of a FTI and FLT3 inhibitor combination based on the method of Chou and Talalay (Chou and Talalay. See Chou T C, Talalay P. (1984) “Quantitative analysis of dose-effect relationships: the combined effects of multiple drugs or enzyme inhibitors.” Adv Enzyme Regul. 22:27-55.), fixed ratio combination dosing with isobolar statistical analysis was performed. […]
# Baf3-ITD cells = experiment: 72-hour cell proliferation assay and combination index analysis, Baf3-ITD; format: cell-based, murine; conditions: with single sub-IC50 dose of FLT3 inhibitor Compound A (50 nM)
# Procedure: as §1, §2, §3
# MV4-11 cells = experiment: Annexin V staining (apoptosis) in MV4-11 cells; format: cell-based, human; conditions: combination (fixed ratio 4:1) versus agent alone, 48 hours
# Text: The ultimate goal of treatment for FLT3 related disorders is to kill the disease causative cells and to cause regression of disease. […] Annexin V binding to phosphotidyl serine that has translocated from the inner leaflet of the plasma membrane to the outer leaflet of the plasma membrane and is a well established way to measure apoptosis of cells. See van Engeland M., L. J. Nieland, et al. (1998) “Annexin V-affinity assay: a review on an apoptosis detection system based on phosphatidylserine exposure.” Cytometry. 31(1):1-9.
# After the compound incubations, treated cells were harvested and stained with Annexin V-PE and 7-AAD using the Guava Nexin apoptosis kit according to the protocol in the Biological Activity Measurements section hereafter. Annexin V staining peaks at 60% because cells late in apoptosis begin to fall apart and are considered debris. […] Statistical analysis using the above described method of Chou and Talalay was also performed to determine the synergy of the combination. […] The magnitude of the synergistic induction of apoptosis of MV4-11 cells by the combination of an FTI and a FLT3 inhibitor could not be predicted by those skilled in the art. […]
# Annexin V Staining. […] All annexin positive cells were considered apoptotic and percent Annexin positive cells was calculated.
# [1] = either agent alone or in combination
# Procedure: Mice were dosed orally by gavage with vehicle (control group) or compound at various doses twice-daily (b.i.d.) during the week and once-daily (q.d.) on weekends. Dosing was continued for 11 consecutive days, depending on the kinetics of tumor growth and size of tumors in vehicle-treated control mice. If tumors in the control mice reached 10% of body weight (˜2.0 grams), the study was to be terminated. […] During the study, tumor growth was measured three times-a-week (M, W, F) using electronic Vernier calipers. Tumor volume (mm^3) was calculated using the formula […], where L=length (mm) and W=width (shortest distance in mm) of the tumor. […] Mice were closely examined daily at each dose for overt clinical signs of adverse, drug-related side effects. […]
# If tumors in the control mice reached ˜10% of body weight (˜2.0 grams), the study was to be terminated. […] During the study, tumor growth was measured three times-a-week (M, W, F) using electronic Vernier calipers. […] Body weight was measured three times-a-week and a loss of body weight >10% was used as an indication of lack of compound tolerability. […]
# Dosing was continued for sixteen consecutive days. Tumor growth was measured three times-a-week (Monday, Wednesday, Friday) using electronic Vernier calipers. Body weight was measured three times-a-week and a loss of body weight >10% was used as an indication of lack of compound tolerability.
# [2] = patients with relapsed and refractory AML; cited from earlier work
smiles,measurement,setting,value
"Cn1cncc1C(N)(c1ccc(Cl)cc1)c1ccc2c(c1)c(-c1cccc(Cl)c1)cc(=O)n2C (single isomer, unassigned; (+)) [Tipifarnib, (+)-6-[amino(4-chlorophenyl)(1-methyl-1H-imidazol-5-yl)methyl]-4-(3-chlorophenyl)-1-methyl-2(1H)-quinolinone]",increase in potency of Tipifarnib,MV4-11 AML cells,more than 3 fold
same,increase in potency of Tipifarnib,Baf3-FLT3 cells,more than 3 fold
same,increase in potency of Tipifarnib,Baf3-ITD cells,more than 3 fold
same,shift of EC50 for the induction of annexin V staining,MV4-11 cells,more than eight-fold
same,overt toxicity,[1]; 9-day treatment,No overt toxicity
same,overt toxicity,[1]; 16-day treatment,No overt toxicity
same,response rate,[2],~30%
